Results published in patent US6652890B2, “Tea catechins as cancer specific proliferation inhibitors” (Purdue Research Foundation, priority 1999, dated 2003).
“Also recorded” adds a separate entry of the source. Like-named read-outs stand apart in the source and are kept apart here.

Experiments:
[1] = target: T1, tNOX activity of intact 4T1 mouse mammary cells (Mus musculus, UniProt Q8R0Z2); assay: Inhibition of tNOX (NADH oxidase) activity of intact 4T1 cells; assay type: cell-based; conditions: for Inhibition of residual tNOX remaining in the presence of EGCg, EC>90: estimated
T1 construct: endogenous in cells; host or cells: 4T1 mouse mammary carcinoma cells (intact)
T1 sequence (Q8R0Z2 1-598): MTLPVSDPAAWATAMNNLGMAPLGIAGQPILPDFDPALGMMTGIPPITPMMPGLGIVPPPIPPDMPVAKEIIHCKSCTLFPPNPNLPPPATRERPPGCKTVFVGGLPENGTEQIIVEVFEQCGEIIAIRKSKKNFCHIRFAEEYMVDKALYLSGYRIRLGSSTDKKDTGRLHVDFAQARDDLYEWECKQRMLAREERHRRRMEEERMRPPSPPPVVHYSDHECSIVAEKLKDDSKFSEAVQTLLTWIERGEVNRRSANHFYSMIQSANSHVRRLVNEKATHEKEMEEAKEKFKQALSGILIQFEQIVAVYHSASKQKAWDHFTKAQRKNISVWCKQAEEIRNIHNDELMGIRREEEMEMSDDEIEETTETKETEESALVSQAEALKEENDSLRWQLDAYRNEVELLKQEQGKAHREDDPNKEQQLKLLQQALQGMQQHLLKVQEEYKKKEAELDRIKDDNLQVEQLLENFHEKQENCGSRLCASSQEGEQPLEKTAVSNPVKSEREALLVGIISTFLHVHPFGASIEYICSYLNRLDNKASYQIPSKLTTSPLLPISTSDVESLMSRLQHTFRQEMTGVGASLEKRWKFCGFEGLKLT
Experimental: A mouse mammary tumor subpopulation line 4T1 arising from a BALB/cf C3H mouse was grown in DME-10, Dulbecco's modified Eagle's medium supplemented with 5% fetal calf serum, 5% newborn calf serum, 1 mM mixed non-essential amino acids, 2 mM L-glutamine, penicillin (100 units/ml), and streptomycin (100 μg/ml) (Miller et al., 1987, Brit. J. Can. 56:561-569 and Miller et al., 1990, Invasion Metastasis 10:101-112).
NADH oxidase activity was determined as the disappearance of NADH measured at 340 nm in a reaction mixture containing 25 mM Tris-Mes buffer (pH 7.2), 1 mM KCN, and 150 μM NADH at 37° C. Activity was measured using a Hitachi U3210 spectrophotometer with stirring and continuous recording over two intervals of 5 min each. A millimolar extinction coefficient of 6.22 was used to determine specific activity.
NADH oxidase activity was determined as the disappearance of NADH measured at 340 nm in a reaction mixture containing 25 mM Tris-Mes buffer (pH 7.2), 1 mM KCN, and 150 μM NADH at 37° C. Activity was measured at 340 nm with reference at 430 nm using an SLM Aminco DW-2000 spectrophotometer (Milton Roy, Rochester, N.Y.) in the dual beam mode of operation with stirring and continuous recording over two intervals of 5 min each. A millimolar extinction coefficient of 6.22 was used to determine specific activity.

[2] = system: 4T1 metastatic mouse mammary cancer cells; assay: Killing of 4T1 metastatic mouse mammary cancer cells in culture; assay type: cell-based; conditions: EGCg 10^−7 M, EC 10^−4 M, alone or combined
[3] = system: 4T1 mouse mammary cancer; assay: Preliminary animal study, Balb/c mice with 4T1 mouse mammary cancer; assay type: in vivo; conditions: treated for 5 days, 100 μl/day; glaucarubolone 1 mg, EGCg + EC 0.2 + 1.2 mg per animal
[4] = Inhibition of residual tNOX remaining in the presence of EGCg, EC50, estimated, EGCg given as 0.1 mM (title), 10^−6 M (head), 10^−7 M
[5] = EGCg given as 0.1 mM (title), 10^−6 M (head), 10^−7 M

With `Oc1cc(O)c2c(c1)OC(c1ccc(O)c(O)c1)C(O)C2` (racemic) [C, (±) - catechin] the “Effect on NOX activity” value ([1]; in the presence of 10^−7 M EGCg, listed as Catechin) was “largely without effect” and the “Effect on NOX activity” value ([1]; in the presence of 10^−7 M EGCg, listed as ±catechin) was “little affected”.
`Oc1cc(O)c2c(c1)O[C@H](c1ccc(O)c(O)c1)[C@H](O)C2` [EC, (−) - epicatechin] was tested, and the “Increase in cell number cm^−2 over 72 h · 10^2” value [2] was 560 cm^−2 · 10^2, the “EC50 for tNOX inhibition by (−)-epicatechin” value (from here on “EC50 for tNOX inhibition”) ([1]; EGCg concentration 0 M, EGCg alone) was “No effect” and the “EC50 for tNOX inhibition” value ([1]; EGCg concentration 0 M, supplied as Tegreen™) was “No effect”. The EC50 ([1]; EGCg concentration 10^−4 M, EGCg alone, read-out: EC50 for tNOX inhibition by (−)-epicatechin) was 500 ± 400 nM, the EC50 ([1]; EGCg concentration 10^−4 M, supplied as Tegreen™, read-out: EC50 for tNOX inhibition by (−)-epicatechin) was 300 ± 200 nM and the EC50 ([1]; EGCg concentration 10^−5 M, EGCg alone, read-out: EC50 for tNOX inhibition by (−)-epicatechin) was 700 ± 300 nM. For the same compound, the EC50 ([1]; EGCg concentration 10^−6 M, EGCg alone, read-out: EC50 for tNOX inhibition by (−)-epicatechin) was 150 ± 50 nM, the EC50 ([1]; EGCg concentration 10^−6 M, supplied as Tegreen™, read-out: EC50 for tNOX inhibition by (−)-epicatechin) was 500 ± 400 nM and the EC50 ([1]; EGCg concentration 10^−7 M, EGCg alone, read-out: EC50 for tNOX inhibition by (−)-epicatechin) was 200 ± 100 nM. The “EC50 for tNOX inhibition” value ([1]; EGCg concentration 10^−7 M, supplied as Tegreen™) was “No effect”, the “EC50 for tNOX inhibition” value ([1]; EGCg concentration 10^−8 M, EGCg alone) was “No effect” and the “EC50 for tNOX inhibition” value ([1]; EGCg concentration 10^−8 M, supplied as Tegreen™) was “No effect”. It also gave an EC50 ([1]; in the presence of 10^−7 M EGCg, read-out: EC50 of EC) of about 200 nM.
With `O=C(O[C@@H]1Cc2c(O)cc(O)cc2O[C@@H]1c1ccc(O)c(O)c1)c1cc(O)c(O)c(O)c1` [ECG, (−) - epicatechin gallate] the EC50 [1, 4] was 500 nM and the “Inhibition of residual tNOX remaining in the presence of EGCg, EC>90” value (shortened to “Inhibition of residual tNOX remaining”) [1, 5] was 10^−6 M.
For `Oc1cc(O)c2c(c1)O[C@H](c1cc(O)c(O)c(O)c1)[C@H](O)C2` [EGC, (−) - epigallocatechin], the EC50 [1, 4] was 1000 nM and the “Inhibition of residual tNOX remaining” value [1, 5] was 10^−5 M.
In the case of `O=C(O[C@@H]1Cc2c(O)cc(O)cc2O[C@H]1c1cc(O)c(O)c(O)c1)c1cc(O)c(O)c(O)c1` [GCG, gallocatechin gallate], the “Inhibition of residual tNOX remaining” value [1, 5] is reported as “Not reached due” and the “Effect on NOX activity” value ([1]; in the presence of 10^−7 M EGCg) is reported as “less effective; also recorded: less affected”.
For `CC1=CC(=O)[C@@H](O)[C@]2(C)[C@H]3[C@@]4(O)OC[C@]35[C@H]([C@@H](C)[C@H]4O)[C@@H](O)C(=O)O[C@@H]5C[C@@H]12` [Glaucarubolone, glaucarubolone], the “Tumor wt” value [3] was 1.5 ± 0.1 g.
